# Source: patent US5494932A, “Sulfonic stilbene derivatives in the treatment of viral disease” (Merrell Dow Pharmaceuticals Inc., priority 1991, dated 1996)
# Read-outs that look alike come from different tables or passages of the source.
# What was measured:
# Assay type in all cases: cell-based, HIV-1 (human T cell line JM)
# [1] = tested on: HIV-1 strain GB8 in JM cells; test: Acute HIV-1 (GB8) infection of JM cells: syncytial counts and p24 antigen; settings: for Mean Syncytial Counts: at day 4 p.i.
# Source text: When evaluated in the human T cell line JM acutely infected with the GB8 virus, DIDS, H2 DIDS and SITS (Table I) suppressed virus-induced multinucleated giant cell formation (syncytia). […] We also examined the antiviral properties of these compounds in a second host-cell/virus system, i.e., the highly CD4+ C8166 cells infected with the Haitian strain of HIV-1, RF.
# The cell lines used were the semi-mature human lymphoblastoid leukemia T cell line JM, the human T-lymphoblastoid C8166 cell line, the human cutaneous T cell lymphoma line H9 and, the human T cell transformed line MT-4. Stocks of HIV-1 strains RF and GB8 (kindly provided by Dr. Graham Farrar, Center for Applied Microbiological Research, Porton Dawn, England) were prepared from chronically infected H9 cells and acutely infected JM cells, respectively. Virus stocks consisted of cell-free growth medium (RPMI 1640 plus 10% fetal calf serum) containing freshly shed virus. Virus titres were determined by a standard plaque reduction assay.
# Virus stocks (strains RF or GB8) were diluted into growth medium containing various concentrations of DIDS, H2 DIDS or SITS. The required number of cells were then immediately added and the virus allowed to absorb for 2 hours at 37° C. to give a multiplicity of infection (MOI) of 0.001 infectious units/cell. The virus-infected cells were pelleted, washed three times in phosphate buffered saline (PBS), and resuspended in fresh growth medium containing the appropriate concentrations of stilbene disulfonic acids. Cells were then distributed into 24-well culture plates (Falcon) and assayed as described below for virus infection. Alternatively, cells were first infected with HIV-1 (strains RF or GB8) for 2 hours at 37° C. at the above MOI. After extensive washing, cells were replated into fresh growth medium containing various concentrations of stilbene disulfonic acids. In the above experiments, syncytia were scored between 2 and 4 days postinfection (p.i.) in triplicate using an Olympus CK2 inverted microscope. The culture fluids were recovered between 3 and 5 days p.i., clarified by low speed centrifugation (2,000 rpm) for 5 minutes and the level of HIV-1 p24 core antigen in the supernatants was determined by p24 antigen ELISA (Coulter). The concentrations of stilbene disulfonic acids giving 50% inhibition of HIV-1 growth (IC50) were determined from the dose-response curves by linear regression analysis.
# Protocol: JM cells were infected with HIV-1 to give a multiplicity of infection of 0.001. Virus adsorption was for 2 hours at room temperature. The cells were washed and distributed into wells containing different concentrations of test compounds and incubated. After 2 days the cells were observed and syncytia were counted. The cell-free supernatant fluids were harvested at 4 and 6 days post infection and assayed for levels of p24 viral core antigen and after 6 days the supernatants were also titrated to determine levels of infectivity.
# [2] = tested on: HIV-1 strain GB8 in JM cells; test: Established HIV-1 (GB8) infection of JM cells, post-infection addition: syncytia and p24 antigen; settings: 100 μg/ml
# [3] = tested on: HIV-1 strain GB8 in JM cells; test: as above; settings: for activity at 100 µg/mL: Human immunodeficiency virus 1, 75 h, read-out: P24 Antigen (75 hours post-infection), %, 100 μg/ml
# Protocol: The stilbene disulfonic acids blocked HIV-1 replication when the compounds were added within 2 hours of virus adsorption, i.e., prior to virus penetration, and the cells were cultured in the presence of the inhibitors. These compounds were next examined for antiviral activity at later stages of the infection process. At a MOI of 0.01 infectious units/cell (GB8 virus), viral glycoproteins appear at the surface of JM cells by 24 hours post-infection (p.i.) and initiate fusion with neighboring CD4^+ cells; the syncytial numbers show a good correlation with the production of cell-free virus (Tyms et al., 1990).
# In post-treatent experiments, cells were first infected with HIV-1 strain RF or GB8 for 2 hours at 37° C. at a MOI of 0.01 and allowed to grow for either 24 or 43 hours before replating into fresh growth medium containing 100 μg/ml of DIDS, H2 DIDS or SITS. Syncytia were then scored at 52 and 68 hours p.i. in triplicate, and p24 viral core antigen in culture fluids were assayed at 75 hours p.i. as described above.
# Protocol: JM cells were infected with HIV at a multiplicity of infection of 0.00025 syncytial forming units per cell. Virus adsorption was at room temperature for one hour. The cells were then washed three times and distributed in wells of a tissue culture plate at a concentration of 2×10^5 cells/well. Either DIDS, SITS or H2 DIDS (all at 100 μg/ml) were added to wells at 0, 24, 43 and 51 hours post-infection. As virus controls some wells had no drug added. Syncytia were scored at 43, 52 and 68 hours post-infection. The cell-free supernatant fluids of the virus control wells were harvested after 33, 43, 51, 68 and 75 hours post-infection. All other wells were harvested 75 hours post-infection. The supernatant fluid was then assayed for p24 viral core antigen.
# [4] = JM cells acutely infected with GB8
# [5] = 100 μg/ml, time of addition 0 h p.i.
# [6] = 100 μg/ml, time of addition 24 h p.i.
# [7] = 100 μg/ml, time of addition 43h
# [8] = 100 μg/ml, time of addition 43 h p.i.
structure (smiles),measurement,setting,value
"O=S(=O)(O)c1cc(N=C=S)ccc1C=Cc1ccc(N=C=S)cc1S(=O)(=O)O [DIDS, 4,4'-diisothiocyanatostilbene-2,2'-disulfonic acid]",Mean Syncytial Counts 2 Days p.i.,[1]; 3 μg/ml,114
same,Mean Syncytial Counts,[1]; 6 μM,114
same,Mean Syncytial Counts 2 Days p.i.,[1]; 6 μg/ml,101
same,Mean Syncytial Counts,[1]; 12 μM,101
same,Mean Syncytial Counts 2 Days p.i.,[1]; 12.5 μg/ml,31
same,p24 4 days p.i.,[1]; 12.5 μg/ml,110000 pg/mL
same,p24 6 days p.i.,[1]; 12.5 μg/ml,2.44 × 10^6 pg/m.
same,Mean Syncytial Counts,[1]; 25 μM,31
same,Mean Syncytial Counts 2 Days p.i.,[1]; 25 μg/ml,0
same,p24 4 days p.i.,[1]; 25 μg/ml,4700 pg/mL
same,p24 6 days p.i.,[1]; 25 μg/ml,1.21 × 10^6 pg/m.
same,Mean Syncytial Counts,[1]; 50 μM,0
same,Mean Syncytial Counts 2 Days p.i.,[1]; 50 μg/ml,0
same,p24 4 days p.i.,[1]; 50 μg/ml,130 pg/mL
same,p24 6 days p.i.,[1]; 50 μg/ml,1.23 × 10^4 pg/m.
same,Mean Syncytial Counts,[1]; 100 μM,0
same,Mean Syncytial Counts 2 Days p.i.,[1]; 100 μg/ml,0
same,p24 4 days p.i.,[1]; 100 μg/ml,None detected
same,p24 6 days p.i.,[1]; 100 μg/ml,4.87 × 10^2 pg/m.
same,Mean Syncytial Counts,[1]; 200 μM,0
same,activity at 12.5 µg/mL,"[1]; Human immunodeficiency virus 1, 96 h, 12.5 μg/ml, read-out: p24 4 days p.i., % Control",> 100%
same,activity at 25 µg/mL,"[1]; Human immunodeficiency virus 1, 96 h, 25 μg/ml, read-out: p24 4 days p.i., % Control",6.4%
same,activity at 50 µg/mL,"[1]; Human immunodeficiency virus 1, 96 h, 50 μg/ml, read-out: p24 4 days p.i., % Control",0.18%
same,activity at 100 µg/mL,"[1]; Human immunodeficiency virus 1, 96 h, 100 μg/ml, read-out: p24 4 days p.i., % Control",0%
same,activity at 200 µM,"[1]; Human immunodeficiency virus 1, 144 h, read-out: P24 Antigen % Virus Control",0.02%
same,activity at 12.5 µg/mL,"[1]; Human immunodeficiency virus 1, 144 h, 12.5 μg/ml, read-out: p24 6 days p.i., % Control",> 100%
same,activity at 25 µg/mL,"[1]; Human immunodeficiency virus 1, 144 h, 25 µg/mL, GB8 in JM cells, day 6 p.i., read-out: P24 Antigen % Virus Control",100%
same,activity at 25 µg/mL,"[1]; Human immunodeficiency virus 1, 144 h, 25 μg/ml, read-out: p24 6 days p.i., % Control",56%
same,activity at 50 µg/mL,"[1]; Human immunodeficiency virus 1, 144 h, 50 µg/mL, GB8 in JM cells, day 6 p.i., read-out: P24 Antigen % Virus Control",6.4%
same,activity at 50 µg/mL,"[1]; Human immunodeficiency virus 1, 144 h, 50 μg/ml, read-out: p24 6 days p.i., % Control",0.56%
same,activity at 100 µg/mL,"[1]; Human immunodeficiency virus 1, 144 h, 100 µg/mL, GB8 in JM cells, day 6 p.i., read-out: P24 Antigen % Virus Control",0.56%
same,activity at 100 µg/mL,"[1]; Human immunodeficiency virus 1, 144 h, 100 μg/ml, read-out: p24 6 days p.i., % Control",0.02%
same,inhibition of p24 viral core antigen,[1]; [4],dose-dependent inhibition
same,virus-induced multinucleated giant cell formation (syncytia),[1]; [4],suppressed
same,order of antiviral potency,"[1]; in all three host cell/virus systems (JM/GB8, C8166/RF, MT-4/RF)",DIDS>H2 DIDS>>SITS
same,Mean Syncytia 51 hrs,[2]; time of addition 0h,0
same,Mean Syncytia 51 hrs,[2]; time of addition 24h,0
same,syncytia by 68 hours p.i.,"[3]; 100 μg/ml, added 43 hours p.i.",completely absent
same,fusion relative to virus control,"[3]; 100 μg/ml, addition 24 hours p.i., scored at 52 and 68 hours p.i.",completely suppressed fusion
same,Mean Syncytia 68 hrs,"[3]; 100 μg/ml, time of addition 0h",0
same,P24 Antigen (75 hours post-infection),"[3]; 100 μg/ml, time of addition 0 hours",Neg
same,P24 Antigen 75 h,[3]; [5],Neg
same,Syncytia at 52h,[3]; [5],0
same,Syncytia at 68h,[3]; [5],0
same,Mean Syncytia 68 hrs,"[3]; 100 μg/ml, time of addition 24h",0
same,P24 Antigen (75 hours post-infection),"[3]; 100 μg/ml, time of addition 24 hours",Neg
same,P24 Antigen 75 h,[3]; [6],Neg
same,Syncytia at 52h,[3]; [6],0
same,Syncytia at 68h,[3]; [6],0
same,Mean Syncytia 51 hrs,[3]; [7],19
same,Mean Syncytia 68 hrs,[3]; [7],0
same,P24 Antigen (75 hours post-infection),"[3]; 100 μg/ml, time of addition 43 hours",2793 pg/mL
same,P24 Antigen 75 h,[3]; [8],2.8 ng/mL
same,Syncytia at 52h,[3]; [8],19
same,Syncytia at 68h,[3]; [8],0
same,Mean Syncytia 68 hrs,"[3]; 100 μg/ml, time of addition 51h",25
same,P24 Antigen (75 hours post-infection),"[3]; 100 μg/ml, time of addition 51 hours",49050 pg/mL
same,activity at 100 µg/mL,[3]; time of addition 0 hours,> 1%
same,activity at 100 µg/mL,[3]; time of addition 24 hours,< 1%
same,activity at 100 µg/mL,[3]; time of addition 43 hours,2.4%
same,activity at 100 µg/mL,[3]; time of addition 51 hours,42%
same,relative order of antiviral potency,[3]; established HIV-1 infections,DIDS>H2 DIDS>>SITS
